According to article PMC12748989 (Nature Communications, 2025):

Experiments:
[1] = tested on: MDA-MB-231 cells
[2] = tested on: PBMC; conditions: 12.5 µM

Row | Compound | Average (percentage cell inhibition), Dmastoparan MDA-MB231 12.5uM [1] | Average (percentage cell inhibition), Mastoparan PBMC [2]
1 | CC[C@H](C)[C@H](N)C(=O)N[C@@H](CC(N)=O)C(=O)N[C@@H](CC(C)C)C(=O)N[C@@H](CCCCN)C(=O)N[C@@H](C)C(=O)N[C@@H](CC(C)C)C(=O)N[C@@H](C)C(=O)N1CCC[C@H]1C(=O)N[C@@H](CC(C)C)C(=O)N[C@@H](C)C(=O)N[C@@H](CCCCN)C(=O)N[C@@H](CCCCN)C(=O)N[C@H](C(=O)N[C@@H](CC(C)C)C(N)=O)[C@@H](C)CC [P8] | 8.428% | -8.536%
2 | CC[C@H](C)[C@H](N)C(=O)N[C@@H](CC(N)=O)C(=O)N[C@@H](CC(C)C)C(=O)N[C@@H](CCCCN)C(=O)N[C@@H](C)C(=O)N[C@@H](CC(C)C)C(=O)N[C@@H](C)C(=O)N[C@@H](C)C(=O)N1CCC[C@H]1C(=O)N[C@@H](C)C(=O)N[C@@H](CCCCN)C(=O)N[C@@H](CCCCN)C(=O)N[C@H](C(=O)N[C@@H](CC(C)C)C(N)=O)[C@@H](C)CC [P9] | 35.5446% | -6.87%
3 | CC[C@H](C)[C@H](N)C(=O)N[C@@H](CC(N)=O)C(=O)N[C@@H](CC(C)C)C(=O)N[C@@H](CCCCN)C(=O)N[C@@H](C)C(=O)N[C@@H](CC(C)C)C(=O)N[C@@H](C)C(=O)N[C@@H](C)C(=O)N[C@@H](CC(C)C)C(=O)N1CCC[C@H]1C(=O)N[C@@H](CCCCN)C(=O)N[C@@H](CCCCN)C(=O)N[C@H](C(=O)N[C@@H](CC(C)C)C(N)=O)[C@@H](C)CC [P10] | 28.7019% | -7.837%
4 | CC[C@H](C)[C@H](N)C(=O)N[C@@H](CC(N)=O)C(=O)N[C@@H](CC(C)C)C(=O)N[C@@H](CCCCN)C(=O)N[C@@H](C)C(=O)N[C@@H](CC(C)C)C(=O)N[C@@H](C)C(=O)N[C@@H](C)C(=O)N[C@@H](CC(C)C)C(=O)N[C@@H](C)C(=O)N1CCC[C@H]1C(=O)N[C@@H](CCCCN)C(=O)N[C@H](C(=O)N[C@@H](CC(C)C)C(N)=O)[C@@H](C)CC [P11] | -0.07814% | -9.695%
5 | CC[C@H](C)[C@H](N)C(=O)N[C@@H](CC(N)=O)C(=O)N[C@@H](CC(C)C)C(=O)N[C@@H](CCCCN)C(=O)N[C@@H](C)C(=O)N[C@@H](CC(C)C)C(=O)N[C@@H](C)C(=O)N[C@@H](C)C(=O)N[C@@H](CC(C)C)C(=O)N[C@@H](C)C(=O)N[C@@H](CCCCN)C(=O)N1CCC[C@H]1C(=O)N[C@H](C(=O)N[C@@H](CC(C)C)C(N)=O)[C@@H](C)CC [P12] | -19.0406% | -2.814%
6 | CC[C@H](C)[C@H](N)C(=O)N[C@@H](CC(N)=O)C(=O)N[C@@H](CC(C)C)C(=O)N[C@@H](CCCCN)C(=O)N[C@@H](C)C(=O)N[C@@H](CC(C)C)C(=O)N[C@@H](C)C(=O)N[C@@H](C)C(=O)N[C@@H](CC(C)C)C(=O)N[C@@H](C)C(=O)N[C@@H](CCCCN)C(=O)N[C@@H](CCCCN)C(=O)N1CCC[C@H]1C(=O)N[C@@H](CC(C)C)C(N)=O [P13] | -16.5854% | -11.6187%
7 | CC[C@H](C)[C@H](N)C(=O)N[C@@H](CC(N)=O)C(=O)N[C@@H](CC(C)C)C(=O)N[C@@H](CCCCN)C(=O)N[C@@H](C)C(=O)N[C@@H](CC(C)C)C(=O)N[C@@H](C)C(=O)N[C@@H](C)C(=O)N[C@@H](CC(C)C)C(=O)N[C@@H](C)C(=O)N[C@@H](CCCCN)C(=O)N[C@@H](CCCCN)C(=O)N[C@H](C(=O)N1CCC[C@H]1C(N)=O)[C@@H](C)CC [P14] | 0.693% | -11.4473%
8 | CC[C@H](C)[C@H](NC(=O)[C@H](CCCCN)NC(=O)[C@H](CCCCN)NC(=O)[C@H](C)NC(=O)[C@H](CC(C)C)NC(=O)[C@H](C)NC(=O)[C@H](C)NC(=O)[C@H](CC(C)C)NC(=O)[C@H](C)NC(=O)[C@H](CCCCN)NC(=O)[C@H](CC(C)C)NC(=O)[C@H](CC(N)=O)NC(=O)[C@@H](N)CCC(N)=O)C(=O)N[C@@H](CC(C)C)C(N)=O [Q1] | 44.2177% | 13.6421%
9 | CC[C@H](C)[C@H](N)C(=O)N[C@@H](CCC(N)=O)C(=O)N[C@@H](CC(C)C)C(=O)N[C@@H](CCCCN)C(=O)N[C@@H](C)C(=O)N[C@@H](CC(C)C)C(=O)N[C@@H](C)C(=O)N[C@@H](C)C(=O)N[C@@H](CC(C)C)C(=O)N[C@@H](C)C(=O)N[C@@H](CCCCN)C(=O)N[C@@H](CCCCN)C(=O)N[C@H](C(=O)N[C@@H](CC(C)C)C(N)=O)[C@@H](C)CC [Q2] | 33.3572% | 13.2802%
10 | CC[C@H](C)[C@H](N)C(=O)N[C@@H](CC(N)=O)C(=O)N[C@@H](CCC(N)=O)C(=O)N[C@@H](CCCCN)C(=O)N[C@@H](C)C(=O)N[C@@H](CC(C)C)C(=O)N[C@@H](C)C(=O)N[C@@H](C)C(=O)N[C@@H](CC(C)C)C(=O)N[C@@H](C)C(=O)N[C@@H](CCCCN)C(=O)N[C@@H](CCCCN)C(=O)N[C@H](C(=O)N[C@@H](CC(C)C)C(N)=O)[C@@H](C)CC [Q3] | 20.3646% | 10.4738%
11 | CC[C@H](C)[C@H](N)C(=O)N[C@@H](CC(N)=O)C(=O)N[C@@H](CC(C)C)C(=O)N[C@@H](CCC(N)=O)C(=O)N[C@@H](C)C(=O)N[C@@H](CC(C)C)C(=O)N[C@@H](C)C(=O)N[C@@H](C)C(=O)N[C@@H](CC(C)C)C(=O)N[C@@H](C)C(=O)N[C@@H](CCCCN)C(=O)N[C@@H](CCCCN)C(=O)N[C@H](C(=O)N[C@@H](CC(C)C)C(N)=O)[C@@H](C)CC [Q4] | 34.9808% | -3.9555%
12 | CC[C@H](C)[C@H](N)C(=O)N[C@@H](CC(N)=O)C(=O)N[C@@H](CC(C)C)C(=O)N[C@@H](CCCCN)C(=O)N[C@@H](CCC(N)=O)C(=O)N[C@@H](CC(C)C)C(=O)N[C@@H](C)C(=O)N[C@@H](C)C(=O)N[C@@H](CC(C)C)C(=O)N[C@@H](C)C(=O)N[C@@H](CCCCN)C(=O)N[C@@H](CCCCN)C(=O)N[C@H](C(=O)N[C@@H](CC(C)C)C(N)=O)[C@@H](C)CC [Q5] | 41.3502% | 0.7115%
13 | CC[C@H](C)[C@H](N)C(=O)N[C@@H](CC(N)=O)C(=O)N[C@@H](CC(C)C)C(=O)N[C@@H](CCCCN)C(=O)N[C@@H](C)C(=O)N[C@@H](CCC(N)=O)C(=O)N[C@@H](C)C(=O)N[C@@H](C)C(=O)N[C@@H](CC(C)C)C(=O)N[C@@H](C)C(=O)N[C@@H](CCCCN)C(=O)N[C@@H](CCCCN)C(=O)N[C@H](C(=O)N[C@@H](CC(C)C)C(N)=O)[C@@H](C)CC [Q6] | -10.4473% | -3.273%
14 | CC[C@H](C)[C@H](N)C(=O)N[C@@H](CC(N)=O)C(=O)N[C@@H](CC(C)C)C(=O)N[C@@H](CCCCN)C(=O)N[C@@H](C)C(=O)N[C@@H](CC(C)C)C(=O)N[C@@H](CCC(N)=O)C(=O)N[C@@H](C)C(=O)N[C@@H](CC(C)C)C(=O)N[C@@H](C)C(=O)N[C@@H](CCCCN)C(=O)N[C@@H](CCCCN)C(=O)N[C@H](C(=O)N[C@@H](CC(C)C)C(N)=O)[C@@H](C)CC [Q7] | 23.653% | 9.246%
15 | CC[C@H](C)[C@H](N)C(=O)N[C@@H](CC(N)=O)C(=O)N[C@@H](CC(C)C)C(=O)N[C@@H](CCCCN)C(=O)N[C@@H](C)C(=O)N[C@@H](CC(C)C)C(=O)N[C@@H](C)C(=O)N[C@@H](CCC(N)=O)C(=O)N[C@@H](CC(C)C)C(=O)N[C@@H](C)C(=O)N[C@@H](CCCCN)C(=O)N[C@@H](CCCCN)C(=O)N[C@H](C(=O)N[C@@H](CC(C)C)C(N)=O)[C@@H](C)CC [Q8] | 46.0978% | 5.553%
16 | CC[C@H](C)[C@H](N)C(=O)N[C@@H](CC(N)=O)C(=O)N[C@@H](CC(C)C)C(=O)N[C@@H](CCCCN)C(=O)N[C@@H](C)C(=O)N[C@@H](CC(C)C)C(=O)N[C@@H](C)C(=O)N[C@@H](C)C(=O)N[C@@H](CCC(N)=O)C(=O)N[C@@H](C)C(=O)N[C@@H](CCCCN)C(=O)N[C@@H](CCCCN)C(=O)N[C@H](C(=O)N[C@@H](CC(C)C)C(N)=O)[C@@H](C)CC [Q9] | 30.6331% | 2.087%
17 | CC[C@H](C)[C@H](N)C(=O)N[C@@H](CC(N)=O)C(=O)N[C@@H](CC(C)C)C(=O)N[C@@H](CCCCN)C(=O)N[C@@H](C)C(=O)N[C@@H](CC(C)C)C(=O)N[C@@H](C)C(=O)N[C@@H](C)C(=O)N[C@@H](CC(C)C)C(=O)N[C@@H](CCC(N)=O)C(=O)N[C@@H](CCCCN)C(=O)N[C@@H](CCCCN)C(=O)N[C@H](C(=O)N[C@@H](CC(C)C)C(N)=O)[C@@H](C)CC [Q10] | 6.186% | 12.3938%
18 | CC[C@H](C)[C@H](N)C(=O)N[C@@H](CC(N)=O)C(=O)N[C@@H](CC(C)C)C(=O)N[C@@H](CCCCN)C(=O)N[C@@H](C)C(=O)N[C@@H](CC(C)C)C(=O)N[C@@H](C)C(=O)N[C@@H](C)C(=O)N[C@@H](CC(C)C)C(=O)N[C@@H](C)C(=O)N[C@@H](CCC(N)=O)C(=O)N[C@@H](CCCCN)C(=O)N[C@H](C(=O)N[C@@H](CC(C)C)C(N)=O)[C@@H](C)CC [Q11] | 41.2471% | 14.9552%
